biological target: CDK2/Cyclin E1 (Homo sapiens, UniProt P24941); assay: CDK2/Cyclin E1 Caliper LabChip EZ Reader mobility shift assay; type: biochemical; set-up: purchased Eurofins 14-475; conditions: read-out: Caliper Assay (CDK2/CCNE1): IC50
How it was run: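 Substrate-to-product conversion of fluorescent peptide (1.5 μM final) read by capillary electrophoresis after 100 min reaction, EDTA-quenched. Enzyme (2.5 nM final) and ATP (100 μM final) were preincubated 30 min with inhibitor dilutions first. % activity vs concentration fitted four-parameter for IC50.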

| SMILES | IC50 [µM] |
| --- | --- |
| COC[C@H]1CCCN(C(=O)[C@@H](NC(=O)[C@@H]2CN(C(=O)c3cncs3)CC23CN(C(=O)[C@H]2CC2(C)C)C3)[C@@H](C)OC(C)C2CCC(F)(F)CC2)C1 (stereo partly drawn) [I-360] | ≤ 0.01 |
| CNC(=O)[C@@H](NC(=O)[C@@H]1CN(C(=O)c2cnn(Cc3ccccc3)c2)CC12CN(C(=O)[C@H]1CC1(C)C)C2)[C@@H](C)OCC1CCOCC1 [I-119A] | 0.1 to 1 |
| CC1(C)C[C@@H]1C(=O)N1CC2(CN(C(=O)c3cnn(Cc4ccccc4)c3)C[C@H]2C(=O)N2CCC[C@H](C(=O)NC3CCCCC3)C2)C1 [I-180] | 0.1 to 1 |
| CC1(C)C[C@@H]1C(=O)N1CC2(CN(C(=O)c3cnn(Cc4ccccc4)c3)C[C@H]2C(=O)N[C@H]2C[C@@H]2c2cccc(Cl)c2)C1 [I-140A] | 0.1 to 1 |
| C[C@@H](OCC12CCC(CC1)OC2)[C@H](NC(=O)[C@@H]1CN(C(=O)c2cnco2)CC12CN(C(=O)C(C)(C)C1CC1)C2)C(C)(C)O [I-448] | 1 to 10 |
| CNC(=O)[C@@H](NC(=O)[C@H]1CN(C(=O)c2cnn(Cc3ccccc3)c2)CC12CN(C(=O)[C@H]1CC1(C)C)C2)[C@@H](C)OCC1CCC1 [I-144B] | 1 to 10 |
| C[C@@H](OCC1CCOCC1)[C@@H](COC(F)(F)F)NC(=O)[C@@H]1CN(C(=O)c2cncs2)CC12CN(C(=O)[C@H]1CC1(C)C)C2 [I-428] | 0.1 to 1 |
| CNC(=O)[C@@H](NC(=O)[C@H]1CN(C(=O)c2cnn(Cc3ccccc3)c2)CC12CN(C(=O)[C@H]1CC1(C)C)C2)[C@@H](C)OCC1(C(F)(F)F)CC1 [I-205B] | 1 to 10 |
| CNC(=O)[C@@H](NC(=O)[C@H]1CN(C(=O)c2cnn(Cc3ccccc3)c2)CC12CN(C(=O)C(C)(C)C)C2)[C@@H](C)OCC1CCCCC1 [I-174B] | 0.1 to 1 |
| Cc1ccc(CNC(=O)[C@@H]2CN(C(=O)c3cnn(Cc4ccccc4)c3)CC23CN(C(=O)[C@H]2CC2(C)C)C3)cn1 [I-364] | > 10 |
| CO[C@H](C)[C@H](NC(=O)[C@@H]1CN(C(=O)c2cnn(C)c2)CC12CN(C(=O)[C@H]1CC1(C)C)C2)C(=O)N1CCCCC1 [I-303] | > 10 |
| CNC(=O)[C@@H](NC(=O)[C@@H]1CN(C(=O)c2cnn(Cc3ccc(F)cc3)c2)CC12CN(C(=O)[C@H]1CC1(C)C)C2)[C@@H](C)OCC1CCC(F)(F)CC1 [I-170] | ≤ 0.01 |
| CC1(C)C[C@@H]1C(=O)N1CC2(CN(C(=O)c3cnn(Cc4ccccc4)c3)CC2C(=O)Nc2ncc(-c3ccccc3)o2)C1 (stereo partly drawn) [I-93] | 1 to 10 |
| CNC(=O)[C@@H](NC(=O)[C@H]1CN(C(=O)c2cnn(Cc3ccccc3)c2)CC12CN(C(=O)[C@H]1CC1(C)C)C2)[C@@H](C)OCC1CCCC1 [I-110B] | 0.1 to 1 |
| CNC(=O)[C@@H](NC(=O)[C@@H]1CN(C(=O)c2cnn(Cc3ccccc3)c2)CC12CN(C(=O)C1(C(F)(F)F)CC1)C2)[C@@H](C)OCc1ccccc1 [I-108A] | 0.1 to 1 |
| CNC(=O)[C@@H](NC(=O)[C@@H]1CN(C(=O)c2cnn(Cc3ccccc3)c2)CC12CN(C(=O)N(C)C(C)C)C2)[C@@H](C)OCC1CCCCC1 [I-274, (S)-6-(1-benzyl-1H-pyrazole-4-carbonyl)-N8-((2S,3R)-3-(cyclohexylmethoxy)-1-(methylamino)-1-oxobutan-2-yl)-N2-isopropyl-N2-methyl-2,6-diazaspiro[3.4]octane-2,8-dicarboxamide] | 0.1 to 1 |
| CNC(=O)C(NC(=O)[C@@H]1CN(C(=O)c2cncs2)CC12CN(C(=O)[C@H]1CC1(C)C)C2)c1cccc(C2CCCCC2)n1 (stereo partly drawn) [I-362] | 0.01 to 0.1 |
| CNC(=O)[C@@H](NC(=O)[C@@H]1CN(C(=O)C2CCOCC2)CC12CN(C(=O)[C@H]1CC1(C)C)C2)[C@@H](C)OCc1ccccc1 [I-38A] | > 10 |
| CNC(=O)[C@@H](NC(=O)[C@@H]1CN(C(=O)C2CCNC2)CC12CN(C(=O)[C@H]1CC1(C)C)C2)[C@@H](C)OCc1ccccc1 (stereo partly drawn) [I-70A, (8S)—N-((2S,3R)-3-(benzyloxy)-1-(methylamino)-1-oxobutan-2-yl)-2-((S)-2,2-dimethylcyclopropane-1-carbonyl)-6-(pyrrolidine-3-carbonyl)-2,6-diazaspiro[3.4]octane-8-carboxamide] | > 10 |
| CNC(=O)C(NC(=O)[C@@H]1CN(C(=O)c2cncs2)CC12CN(C(=O)[C@H]1CC1(C)C)C2)c1cccc(N2CC3(CC(C(F)(F)F)C3)C2)n1 (stereo partly drawn) [I-430] | 0.1 to 1 |
| C[C@@H](OCC1CCCCC1)[C@H](NC(=O)C1CN(C(=O)c2cnn(Cc3ccccc3)c2)CC12CN(C(=O)[C@H]1CC1(C)C)C2)C(=O)N1CC(C)(C)C1 (stereo partly drawn) [I-153 mixture] | ≤ 0.01 |
| C[C@@H](OCC1CCCCC1)[C@H](NC(=O)[C@@H]1CN(C(=O)c2cnn(CC(F)(F)F)c2)CC12CN(C(=O)[C@H]1CC1(C)C)C2)C(=O)N1CCCCC1 [I-132] | 0.01 to 0.1 |
| C[C@@H](OCC1CCCCC1)C(NC(=O)[C@@H]1CN(C(=O)c2cncs2)CC12CN(C(=O)[C@H]1CC1(C)C)C2)c1nnco1 (stereo in doubt) [I-415, (S)—N-((1S,2R)-2-(cyclohexylmethoxy)-1-(1,3,4-oxadiazol-2-yl)propyl)-2-((S)-2,2-dimethylcyclopropane-1-carbonyl)-6-(thiazole-5-carbonyl)-2,6-diazaspiro[3.4]octane-8-carboxamide] | 0.01 to 0.1 |
| CNC(=O)[C@@H](NC(=O)[C@H]1CN(C(=O)c2cncs2)CC12CN(C(=O)[C@H]1CC1(C)C)C2)[C@@H](C)OCC1CCCCC1 [I-129B] | 1 to 10 |

| SMILES | IC50 [µM] |
| --- | --- |
| CC1(C)C[C@@H]1C(=O)N1CC2(CN(C(=O)c3cnn(Cc4ccccc4)c3)C[C@@H]2C(=O)NCc2nnc[nH]2)C1 [I-191B] | > 10 |
| COC(=O)[C@@H](CO)NC(=O)[C@H]1CN(C(=O)c2cnn(Cc3ccccc3)c2)CC12CN(C(=O)[C@H]1CC1(C)C)C2 [I-187B] | > 10 |
| CNC(=O)[C@@H](NC(=O)[C@@H]1CN(C(=O)c2cnn(Cc3ccccc3)c2)CC12CN(C(=O)[C@H]1CC1(C)C)C2)[C@@H](C)OC[C@H]1CC[C@H](O)CC1 [I-413] | 0.1 to 1 |
| CNC(=O)[C@@H](NC(=O)[C@@H]1CN(C(=O)c2cnn(Cc3ccccc3)c2)CC12CN(C(=O)C1(C)CC1)C2)[C@@H](C)OCc1ccccc1 [I-67A, (S)-6-(1-benzyl-1H-pyrazole-4-carbonyl)-N-((2S,3R)-3-(benzyloxy)-1-(methylamino)-1-oxobutan-2-yl)-2-(1-methylcyclopropane-1-carbonyl)-2,6-diazaspiro[3.4]octane-8-carboxamide] | 0.1 to 1 |
| CNC(=O)[C@@H](NC(=O)[C@H]1CN(C(=O)c2cnn(Cc3ccccc3)c2)CC12CN(C(=O)[C@H]1CC1(C)C)C2)[C@@H](C)OCC1CCCCC1 [I-123B] | 0.1 to 1 |
| CNC(=O)[C@@H](NC(=O)[C@H]1CN(C(=O)c2cnn(Cc3ccccc3)c2)CC12CN(C(=O)C1(C)CC1)C2)[C@@H](C)OCc1ccccc1 [I-67B] | > 10 |
| CNC(=O)[C@@H](NC(=O)[C@@H]1CN(C(=O)c2cnc(COC)s2)CC12CN(C(=O)[C@H]1CC1(C)C)C2)[C@@H](C)OCC1CCCCC1 [I-145A] | 0.01 to 0.1 |
| CNC(=O)[C@@H](NC(=O)[C@H]1CN(C(=O)c2cnc(CC3CC3)s2)CC12CN(C(=O)[C@H]1CC1(C)C)C2)[C@@H](C)OCC1CCCCC1 [I-177B] | 1 to 10 |
| CNC(=O)[C@@H](NC(=O)[C@@H]1CN(C(=O)c2cnn(Cc3ccc(C(=O)O)cc3)c2)CC12CN(C(=O)[C@H]1CC1(C)C)C2)[C@@H](C)OCc1ccccc1 [I-476] | 1 to 10 |
| C[C@@H](OCC1CCCCC1)[C@@H](COC1CCOCC1)NC(=O)[C@@H]1CN(C(=O)c2cncs2)CC12CN(C(=O)[C@H]1CC1(C)C)C2 [I-331] | ≤ 0.01 |
| CNC(=O)[C@@H](NC(=O)[C@H]1CN(C(=O)c2cnn(Cc3ccccc3)c2)CC12CN(C(=O)C1C(C)(C)C1(C)C)C2)[C@@H](C)OCc1ccccc1 [I-89B] | > 10 |
| C[C@@H](OCC1CCCCC1)[C@H](NC(=O)C1CN(C(=O)c2cnn(Cc3ccccc3)c2)CC12CN(C(=O)[C@H]1CC1(C)C)C2)C(=O)NCCC(=O)O (stereo partly drawn) [I-353] | ≤ 0.01 |
| COC[C@H]1CCCN(C(=O)[C@@H](NC(=O)[C@@H]2CN(C(=O)c3cncs3)CC23CN(C(=O)[C@H]2CC2(C)C)C3)[C@@H](C)OC[C@H]2CC[C@H](NC(C)=O)CC2)C1 [I-434] | 0.1 to 1 |
| CNC(=O)[C@@H](NC(=O)[C@H]1CN(C(=O)c2cnn(Cc3ccccc3)c2)CC12CN(C(=O)C(C)(C)C#N)C2)[C@@H](C)OCc1ccccc1 [I-76B] | > 10 |
| COCCNC(=O)[C@@H]1CN(C(=O)c2cnn(Cc3ccccc3)c2)CC12CN(C(=O)[C@H]1CC1(C)C)C2 [I-122A] | > 10 |
| CNC(=O)[C@@H](NC(=O)[C@H]1CN(C(=O)c2cnn(CC3CCOCC3)c2)CC12CN(C(=O)[C@H]1CC1(C)C)C2)[C@@H](C)OCc1ccccc1 [I-95B] | > 10 |
| C[C@@H](OCC1CCCCC1)[C@@H](COC1CCCCC1)NC(=O)[C@@H]1CN(C(=O)c2cncs2)CC12CN(C(=O)[C@H]1CC1(C)C)C2 [I-308] | ≤ 0.01 |
| CNC(=O)[C@@H](NC(=O)[C@@H]1CN(C(=O)c2cncs2)CC12CN(C(=O)[C@H]1CC1(C)C)C2)[C@@H](C)OCC1CCCC2(CC2)C1 (stereo partly drawn) [I-370] | ≤ 0.01 |
| CNC(=O)[C@@H](NC(=O)[C@@H]1CN(C(=O)c2cnn(Cc3ccccc3)c2)CC12CN(C(=O)[C@H]1CC1(C)C)C2)[C@@H](C)OCC1CCC(C)(C)CC1 [I-372] | ≤ 0.01 |
| C[C@@H](OCC1CCCCC1)[C@@H](CO)NC(=O)[C@H]1CN(C(=O)c2cnn(Cc3ccccc3)c2)CC12CN(C(=O)[C@H]1CC1(C)C)C2 [I-135B] | 0.1 to 1 |
| COC1CCN(C(=O)[C@@H](NC(=O)[C@@H]2CN(C(=O)c3sc(C)nc3C)CC23CN(C(=O)[C@H]2CC2(C)C)C3)[C@@H](C)OCC23CCC(CC2)OC3)CC1 [I-451] | 0.01 to 0.1 |
| CNC(=O)[C@@H](NC(=O)[C@@H]1CN(C(=O)c2cnn(Cc3ccccc3)c2)CC12CN(C(=O)C(C)C)C2)[C@@H](C)OCc1ccccc1 [I-54A] | 0.1 to 1 |
| C[C@@H](OCC1CCCCC1)[C@H](NC(=O)[C@@H]1CN(C(=O)c2cnn(Cc3ccccc3)c2)CC12CN(C(=O)[C@H]1CC1(C)C)C2)C(=O)NCC1(C(=O)O)CC1 [I-474] | ≤ 0.01 |
| C[C@@H](OCC1CCCCC1)[C@H](NC(=O)[C@@H]1CN(C(=O)c2cnn(Cc3ccccc3)c2)CC12CN(C(=O)[C@H]1CC1(C)C)C2)C(=O)N1CC[C@@H]1CN [I-270] | 0.01 to 0.1 |
